pIC50: −log10 of the molar value.
Legend:
CYP3A4 = CYP3A4 (Homo sapiens, UniProt P08684); assay: Cytochrome P450 (CYP450) Inhibition Assay, CYP3A4 (Vivid fluorescence, BOMCC substrate); conditions: human, P450 Baculosomes (recombinant CYP3A4), probe BOMCC (Vivid substrate)
sodium channel = assay: Guanidine influx assay (14C-guanidine radiotracer flux, in vitro); assay type: cell-based, human or rat; conditions: guanidine influx assay using a known cell line that expresses a sodium channel
Outline: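 Sodium channel block is measured as reduced 14C-guanidine uptake in cells stably expressing human or rat channels, stimulated with aconitine. Potency is given as IC50 from a four-parameter curve.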

Sequence of CYP3A4 (P08684 whole entry): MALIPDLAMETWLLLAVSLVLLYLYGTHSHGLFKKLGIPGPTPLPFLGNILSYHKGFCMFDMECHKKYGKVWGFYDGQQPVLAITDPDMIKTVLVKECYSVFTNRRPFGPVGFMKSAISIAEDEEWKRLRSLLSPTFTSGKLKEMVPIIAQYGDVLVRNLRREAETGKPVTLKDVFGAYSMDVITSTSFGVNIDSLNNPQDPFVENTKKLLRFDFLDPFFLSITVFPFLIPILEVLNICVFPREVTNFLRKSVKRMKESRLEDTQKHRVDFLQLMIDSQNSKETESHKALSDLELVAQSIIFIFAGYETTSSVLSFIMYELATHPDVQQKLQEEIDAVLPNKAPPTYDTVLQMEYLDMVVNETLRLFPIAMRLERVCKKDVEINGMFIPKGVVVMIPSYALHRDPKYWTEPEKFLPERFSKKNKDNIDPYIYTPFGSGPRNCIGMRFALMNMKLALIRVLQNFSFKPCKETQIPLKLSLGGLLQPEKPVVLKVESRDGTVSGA

Cn1c(=O)oc2cc3c(cc21)C1(CO3)C(=O)N(C[C@H]2CCCO2)c2ccccc21 (stereo partly drawn) [Example 4.60, 1-methyl-1′-[(2R)-tetrahydrofuran-2-ylmethyl]spiro[furo[3,2-f][1,3]benzoxazole-7,3′-indole]-2,2′(1′H,1′H)-dione]
inhibition at 10 µM (CYP3A4): < 50%
melting point: > 250 °C
pIC50 (sodium channel; activity level class): 5.00 to 6.00

COCCOCCN1C(=O)C2(COc3cc4c(cc32)CCO4)c2ccccc21 (stereo not drawn) [Example 9.1, 1′-[2-(2-methoxyethoxy)ethyl]-5,6-dihydrospiro[benzo[1,2-b:5,4-b′]difuran-3,3′-indol]-2′(1′H)-one]
inhibition at 10 µM (CYP3A4): > 50%
melting point: 105 to 107 °C
pIC50 (sodium channel; activity level class): 6.00 to 7.00

O=C1NCC(CN2C(=O)C3(COc4cc5c(cc43)CCO5)c3ccccc32)O1 (stereo not drawn) [Example 9.10, 1′-[(2-oxo-1,3-oxazolidin-5-yl)methyl]-5,6-dihydrospiro[benzo[1,2-b:5,4-b′]difuran-3,3′-indol]-2′(1′H)-one]
inhibition at 10 µM (CYP3A4): < 50%
melting point: 197 to 198 °C
pIC50 (sodium channel; activity level class): 5.00 to 6.00

CCCNC(=O)CN1C(=O)C2(COc3cc4c(cc32)CCO4)c2ccccc21 (stereo not drawn) [Example 12.51, 2-(2′-oxo-5,6-dihydrospiro[benzo[1,2-b:5,4-b′]difuran-3,3′-indol]-1′(2′H)-yl)-N-propylacetamide]
inhibition at 10 µM (CYP3A4): > 50%
melting point: 207 to 209 °C
pIC50 (sodium channel): 6.00 to 7.00

O=C1Nc2ccccc2C12COc1cc3c(cc12)CCCO3 (stereo not drawn) [Example 3.21, 6,7-dihydro-5H-spiro[furo[3,2-g]chromene-3,3′-indol]-2′(1′H)-one]
inhibition at 10 µM (CYP3A4): < 50%
melting point: 216 to 220 °C
pIC50 (sodium channel; activity level class): 6.00 to 7.00

O=C1N(C[C@H]2CCCO2)c2ccccc2C12COc1cc(O)ccc12 (stereo partly drawn) [Example 11.53, 6-hydroxy-1′-[(2R)-tetrahydrofuran-2-ylmethyl]spiro[1-benzofuran-3,3′-indol]-2′(1′H)-one]
inhibition at 10 µM (CYP3A4): < 50%
melting point: 72 to 74 °C
pIC50 (sodium channel): 6.00 to 7.00

O=C1N(Cc2noc(C3CC3)n2)c2cccc(Cl)c2C12COc1cc3c(cc12)OCO3 (stereo not drawn) [Example 11.20, 4′-chloro-1′-[(5-cyclopropyl-1,2,4-oxadiazol-3-yl)methyl]spiro[furo[2,3-f][1,3]benzodioxole-7,3′-indol]-2′(1′H)-one]
inhibition at 10 µM (CYP3A4): > 50%
melting point: 180 to 182 °C
pIC50 (sodium channel): 7.00 to 9.00

COC(=O)c1coc(CN2C(=O)C3(COc4cc5onc(C)c5cc43)c3ccccc32)n1 (stereo not drawn) [Example 9.58, methyl 2-[(3-methyl-2′-oxospiro[furo[3,2-f][1,2]benzisoxazole-5,3′-indol]-1′(2′H)-yl)methyl]-1,3-oxazole-4-carboxylate]
inhibition at 10 µM (CYP3A4): < 50%
melting point: 148 to 152 °C
pIC50 (sodium channel): 6.00 to 7.00

O=C1N(Cc2nnc(-c3ccc(Cl)cc3)o2)c2ccccc2C12COc1cc3c(cc12)OCO3 (stereo not drawn) [Example 6.7, 1′-{[5-(4-chlorophenyl)-1,3,4-oxadiazol-2-yl]methyl}spiro[furo[2,3-f][1,3]benzodioxole-7,3′-indol]-2′(1′H)-one]
inhibition at 10 µM (CYP3A4): > 50%
melting point: 161 to 162 °C
pIC50 (sodium channel; activity level class): 6.00 to 7.00

Cc1noc(-c2ccc(CN3C(=O)C4(COc5cc6c(cc54)OCCO6)c4ccccc43)cc2)n1 (stereo not drawn) [Example 30, 1′-[4(3-methyl-1,2,4-oxadiazol-5-yl)benzyl]-2,3-dihydrospiro[furo[2,3-g][1,4]benzodioxine-8,3′-indol]-2′(1′H)-one]
inhibition at 10 µM (CYP3A4): < 50%
melting point: 177 to 178 °C
pIC50 (sodium channel): 7.00 to 9.00

N#Cc1ccc2c(c1)C1(COc3cc4c(cc31)OCCO4)C(=O)N2Cc1ccccn1 (stereo not drawn) [Example 2.50, 2′-oxo-1′-(pyridin-2-ylmethyl)-1′,2,2′,3-tetrahydrospiro[furo[2,3-g][1,4]benzodioxine-8,3′-indole]-5′-carbonitrile]
inhibition at 10 µM (CYP3A4): < 50%
melting point: 198 to 199 °C
pIC50 (sodium channel; activity level class): 7.00 to 9.00

C[C@@H](CN1C(=O)C2(COc3cc4c(cc32)CCO4)c2ccccc21)OCc1ccccn1 (stereo partly drawn) [Example 14.3, 1′-[(2S)-2-(pyridin-2-ylmethoxy)propyl]-5,6-dihydrospiro[benzo[1,2-b:5,4-b′]difuran-3,3′-indol]-2′(1′H)-one]
inhibition at 10 µM (CYP3A4): > 50%
melting point: 46 to 54 °C
pIC50 (sodium channel): 5.00 to 6.00

CS(=O)(=O)c1cccnc1CN1C(=O)C2(COc3cc4c(cc32)OCCO4)c2ccccc21 (stereo not drawn) [Example 11.79]
inhibition at 10 µM (CYP3A4): < 50%
melting point: > 250 °C
pIC50 (sodium channel): 6.00 to 7.00

N#Cc1ccccc1-c1ccc(CN2C(=O)C3(COc4cc5c(cc43)CCO5)c3ccccc32)cc1 (stereo not drawn) [Example 4.24, 4′-[(2′-oxo-5,6-dihydrospiro[benzo[1,2-b:5,4-b′]difuran-3,3′-indol]-1′(2′H)-yl)methyl]biphenyl-2-carbonitrile]
inhibition at 10 µM (CYP3A4): < 50%
melting point: 192 to 194 °C
pIC50 (sodium channel; activity level class): 6.00 to 7.00

N#CCCN1C(=O)C2(COc3cc4c(cc32)OCO4)c2ccccc21 (stereo not drawn) [Example 4.80, 3-(2′-oxospiro[furo[2,3-f][1,3]benzodioxole-7,3′-indol]-1′(2′H)-yl)propanenitrile]
inhibition at 10 µM (CYP3A4): > 50%
melting point: 200 to 202 °C
pIC50 (sodium channel; activity level class): 7.00 to 9.00

CC1(C)O[C@H]2[C@@H](O1)[C@@H](CN1C(=O)C3(COc4cc5c(cc43)OCCO5)c3ccccc31)O[C@@H]1OC(C)(C)O[C@@H]12 (stereo partly drawn) [Example 19, 1′-{[(3aR,5R,5aS,8aS,8bR)-2,2,7,7-tetramethyltetrahydro-3aH-bis[1,3]dioxolo[4,5-b:4′,5′-d]pyran-5-yl]methyl}-2,3-dihydrospiro[furo[2,3-g][1,4]benzodioxine-8,3′-indol]-2′(1′H)-one]
inhibition at 10 µM (CYP3A4): < 50%
melting point: 112 to 118 °C
pIC50 (sodium channel): 5.00 to 6.00

N#Cc1cc2c(cc1O)OCC21C(=O)N(C[C@H]2CCCO2)c2ccccc21 (stereo partly drawn) [Example 45, 6-hydroxy-2′-oxo-1′-[(2R)-tetrahydrofuran-2-ylmethyl]-1′,2′-dihydrospiro[1-benzofuran-3,3′-indole]-5-carbonitrile]
inhibition at 10 µM (CYP3A4): < 50%
melting point: 218 to 221 °C
pIC50 (sodium channel): 5.00 to 6.00

O=C1N(C[C@H]2CCCO2)c2cc3c(cc2C12COc1cc4c(cc12)CCO4)OCCO3 (stereo partly drawn) [Example 2.26, 6-(((R)-tetrahydrofuran-2-yl)methyl)-2,3,5′,6′-tetrahydro-2′H-spiro[[1,4]dioxino[2,3-f]indole-8,3′-benzofuro[6,5-b]furan]-7(6H)-one]
inhibition at 10 µM (CYP3A4): < 50%
melting point: 220 to 225 °C
pIC50 (sodium channel; activity level class): 5.00 to 6.00

O=C1Nc2ccccc2C12COc1cc(F)c(F)cc12 (stereo not drawn) [Example 3.44, 5,6-difluorospiro[1-benzofuran-3,3′-indol]-2′(1′H)-one]
inhibition at 10 µM (CYP3A4): > 50%
melting point: > 200 °C
pIC50 (sodium channel; activity level class): 5.00 to 6.00

Cc1ccc(NC(=O)c2cccc(CN3C(=O)C4(COc5cc6c(cc54)CCO6)c4ccccc43)c2)c(C)c1 (stereo not drawn) [Example 12.4, N-(2,4-dimethylphenyl)-3-[(2′-oxo-5,6-dihydrospiro[benzo[1,2-b:5,4-b′]difuran-3,3′-indol]-1′(2′H)-yl)methyl]benzamide]
inhibition at 10 µM (CYP3A4): > 50%
melting point: 234 to 235 °C
pIC50 (sodium channel): 6.00 to 7.00

O=C(Nc1cccc(Cl)c1)c1ccccc1CN1C(=O)C2(COc3cc4c(cc32)CCO4)c2ccccc21 (stereo not drawn) [Example 12.13, N-(3-chlorophenyl)-2-[(2′-oxo-5,6-dihydrospiro[benzo[1,2-b:5,4-b′]difuran-3,3′-indol]-1′(2′H)-yl)methyl]benzamide]
inhibition at 10 µM (CYP3A4): > 50%
melting point: > 230 °C
pIC50 (sodium channel): 5.00 to 6.00

O=C(O)c1cccc(CN2C(=O)C3(COc4cc5c(cc43)OCCO5)c3ccccc32)c1 (stereo not drawn) [Example 11.86, 3-[(2′-oxo-2,3-dihydrospiro[furo[2,3-g][1,4]benzodioxine-8,3′-indol]-1′(2′H)-yl)methyl]benzoic acid]
inhibition at 10 µM (CYP3A4): < 50%
melting point: 254 to 258 °C
pIC50 (sodium channel): 5.00 to 6.00

NC(=O)c1ccc(CN2C(=O)C3(COc4cc5c(cc43)OCCO5)c3ccccc32)cc1 (stereo not drawn) [Example 12.60, 4-[(2′-oxo-2,3-dihydrospiro[furo[2,3-g][1,4]benzodioxine-8,3′-indol]-1′(2′H)-yl)methyl]benzamide]
inhibition at 10 µM (CYP3A4): > 50%
melting point: 236 to 238 °C
pIC50 (sodium channel): 7.00 to 9.00

O=C1Nc2ccccc2C12COc1c(Cl)cc3c(c12)OCCO3 (stereo not drawn) [Example 3.42, 6-chloro-2,3-dihydrospiro[furo[3,2-f][1,4]benzodioxine-9,3′-indol]-2′(1′H)-one]
inhibition at 10 µM (CYP3A4): < 50%
melting point: 255 to 257 °C
pIC50 (sodium channel; activity level class): 5.00 to 6.00

O=C1N(Cc2cnc(Br)s2)c2ccccc2C12COc1cc3c(cc12)OCO3 (stereo not drawn) [Example 4.81, 1′-[(2-bromo-1,3-thiazol-5-yl)methyl]spiro[furo[2,3-f][1,3]benzodioxole-7,3′-indol]-2′(1′H)-one]
inhibition at 10 µM (CYP3A4): > 50%
melting point: 215 to 217 °C
pIC50 (sodium channel; activity level class): 7.00 to 9.00

O=C1N(Cc2ccc(C(F)(F)F)o2)c2c(C(F)(F)F)cccc2C12COc1cc3c(cc12)OCO3 (stereo not drawn) [Example 4.74, 7′-(trifluoromethyl)-1′-{[5-(trifluoromethyl)-2-furyl]methyl}spiro[furo[2,3-f][1,3]benzodioxole-7,3′-indol]-2′(1′H)-one]
inhibition at 10 µM (CYP3A4): > 50%
melting point: 95 to 98 °C
pIC50 (sodium channel; activity level class): 6.00 to 7.00

O=C1N(Cc2cccnc2)c2ccccc2C12COc1cc(F)c(F)cc12 (stereo not drawn) [Example 9.31, 5,6-difluoro-1′-(pyridin-3-ylmethyl)spiro[1-benzofuran-3,3′-indol]-2′(1′H)-one]
inhibition at 10 µM (CYP3A4): > 50%
melting point: 175 to 177 °C
pIC50 (sodium channel; activity level class): 5.00 to 6.00

COc1cc2c(cc1C)[C@]1(CO2)C(=O)Nc2ccccc21 [Example 3.26, (3R)-6-methoxy-5-methylspiro[1-benzofuran-3,3′-indol]-2′(1′H)-one]
inhibition at 10 µM (CYP3A4): > 50%
melting point: > 250 °C
pIC50 (sodium channel; activity level class): 5.00 to 6.00

From patent US8263606B2 (Xenon Pharmaceuticals Inc., priority 2008, dated 2012)
